# Target: T1, OlsH (Sinac_1599) (Singulisphaera acidiphila, UniProt L0DAW6)
# T1 sequence (L0DAW6 1-526): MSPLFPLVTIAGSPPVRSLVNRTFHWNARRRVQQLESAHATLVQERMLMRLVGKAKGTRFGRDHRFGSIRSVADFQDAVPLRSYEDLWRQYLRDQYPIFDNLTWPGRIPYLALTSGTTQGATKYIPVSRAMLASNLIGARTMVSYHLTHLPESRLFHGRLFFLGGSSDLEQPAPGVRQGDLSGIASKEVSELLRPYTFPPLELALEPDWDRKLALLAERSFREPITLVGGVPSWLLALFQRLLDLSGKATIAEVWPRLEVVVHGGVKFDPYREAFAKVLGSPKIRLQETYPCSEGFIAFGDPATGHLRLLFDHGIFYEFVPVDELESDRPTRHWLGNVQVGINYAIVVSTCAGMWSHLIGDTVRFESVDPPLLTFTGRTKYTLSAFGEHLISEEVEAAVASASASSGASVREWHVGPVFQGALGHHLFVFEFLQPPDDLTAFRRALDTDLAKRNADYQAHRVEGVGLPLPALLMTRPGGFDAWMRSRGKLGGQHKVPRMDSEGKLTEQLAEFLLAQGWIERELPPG
# Test: […] N-acyl ornithine formation, TLC / PhosphorImager; empty-vector extract inactive
# Assay type: biochemical
# Details: ATP, Mg2+, Tris pH 7.9, 30 °C, cell-free E. coli extract
Compound,"14C N-acyl ornithine formation, TLC / PhosphorImager; empty-vector extract inact (palmitic acid, labelled compound)","14C N-acyl ornithine formation, TLC / PhosphorImager; empty-vector extract inact ([14C]-ornithine, fatty acid as Triton X-100 micelles)"
NCCC[C@H](N)C(=O)O [ornithine],Adding all compounds resulted in a solid acyl-ornithine signal,
CCCCCCCCCCCCCCCC(=O)O [palmitic acid],,Strong acyl ornithine signals were detected with the three non-hydroxylated fatty acids

# Reference: publication PMC12493201, “A biosynthetic pathway for ornithine lipid formation dependent on a GH3 (Gretchen Hagen 3)-like enzyme in planctomycetes” (The Journal of Biological Chemistry, 2025)
